# Reference: patent US20150218141A1, “SUBSTITUTED CARBAMATE COMPOUNDS” (HOFFMANN-LA ROCHE INC, priority 2012, published 2015)
# Where a name gives a salt, the structure may show the parent alone.
# Target: T1, hTRPA1 (Homo sapiens, UniProt O75762)
# T1 construct: host or cells: CHO-K1 Tet-On, Clone 20 (Chinese Hamster Ovary cells, inducible expression)
# Assay: IC50 determination, dose response calcium flux (FLIPR) assay, ChanTest hTRPA1-CHO stably transfected cell line
# Assay type: cell-based
# Conditions: CHO-K1 Tet-On hTRPA1 cells, 30' preincubation, agonist cinnamaldehyde final 100 uM
# Method: IC50 Determination of Exemplified Compounds Dose Response Assay: ChanTest hTRPA1-CHO Stably Transfected Cell Line
# CHO-K1 Tet-On_HOMSA_TRPA1_Clone—20
# Growth Media for CHO-K1 Tet-On_HOMSA_TRPA1_Clone—20 • Ham's F-12 with 10% tetracycline-free FBS • 1× penicillin-streptomycin • 1× glutamax • 0.01 mg/ml Blasticidin • 0.40 mg/ml Zeocin • The cell line doubling rate was ˜15 hours. […] Experiments were run at 24 hours post induction.
# Plating Conditions CHOK1/TRPA1 Cells: • Harvested cells with 0.025% trypsin/EDTA. • Resuspended cells in growth media without selection antibiotics. • Measured cell density and diluted to 2.4×10^5 cells/ml in media containing 1 ug/ml Doxycycline Plate 25 ul/well into 384 well black/clear tissue culture-treated plates. • Incubated overnight at 37° C.
# Reagents: • Replacement Buffer: Hank's Balanced Salt Solution, 20 mM HEPES along with 0.005% BSA and 2× Probenecid • Dye Loading Buffer: Cal-3 NW Calcium dye was prepared by dissolving the contents of one vial with […] Hank's Balanced Salt Solution containing 20 mM HEPES. • Control compounds for CHOK1/TRPA1 cells: AP-18, stock 10 mM, prepare 3.5× compound dilution in a Compound Buffer (HBSS/20 mM HEPES/0.005% BSA)—final concentration 10 uM.
# Preparation of Cinnamaldehyde (Agonist Addition):
# • Specific gravity=1.046 gm/cc • 1.32 gm/1.046 gm/cc=1.26 ml of stock • Add 1.74 ml DMSO=3.3 M stock • Working solution 4.5× (final 100 uM in Compound Buffer: HBSS/20 mM HEPES/0.005% BSA)
# Compounds dilutions were prepared from 5 or 10 mM stock (100% DMSO): • Adjustments of volumes and concentrations were made at time of titration to reflect desired final assay concentrations. • Compounds were tested at either 20 μM three folds dilution 11 steps out or 30 μM two folds dilution 11 steps out. • 3 μl of diluted compound were transferred into Weidmann 384-well plate in duplicates side-by-side.
# Compound plates were resuspended with 100 ul of HBSS/20 mM HEPES/0.005% BSA buffer (Compound Buffer):
# Growth media was removed from the cell plates (20 ul) and 20 ul of the Replacement Buffer was added followed by addition of 25 ul of diluted dye. All three steps were performed using a Plate Washer BioTek 407. The plates were then incubated for 30′ at RT.
# After incubation, both the cell and compound plates were brought to the FLIPR and 20 ul of the diluted compounds/antagonist/bk were transferred to the cell plates by the FLIPR. Plates were then incubated for 30′ at room temperature. After 30′ incubation, plates were returned to the FLIPR and 20 ul of 4.5× Cinnamaldehyde was added to the cell plates. During the compound addition as well as agonist addition, fluorescence readings were taken simultaneously from all 384 wells of the cell plate every 1.5 seconds. Five readings were taken to establish a stable baseline, then 20 ul of sample was rapidly (30 ul/sec) and simultaneously added to each well of the cell plate. The fluorescence was continuously monitored before, during and after sample/agonist addition for a total elapsed time of 100 seconds (compound addition) and 120 seconds (agonist addition). Responses (increase in peak fluorescence) in each well following agonist addition was determined. The initial fluorescence reading from each well, prior to ligand stimulation, was used a zero baseline value for the data from that well.
# T1 sequence (O75762 whole entry): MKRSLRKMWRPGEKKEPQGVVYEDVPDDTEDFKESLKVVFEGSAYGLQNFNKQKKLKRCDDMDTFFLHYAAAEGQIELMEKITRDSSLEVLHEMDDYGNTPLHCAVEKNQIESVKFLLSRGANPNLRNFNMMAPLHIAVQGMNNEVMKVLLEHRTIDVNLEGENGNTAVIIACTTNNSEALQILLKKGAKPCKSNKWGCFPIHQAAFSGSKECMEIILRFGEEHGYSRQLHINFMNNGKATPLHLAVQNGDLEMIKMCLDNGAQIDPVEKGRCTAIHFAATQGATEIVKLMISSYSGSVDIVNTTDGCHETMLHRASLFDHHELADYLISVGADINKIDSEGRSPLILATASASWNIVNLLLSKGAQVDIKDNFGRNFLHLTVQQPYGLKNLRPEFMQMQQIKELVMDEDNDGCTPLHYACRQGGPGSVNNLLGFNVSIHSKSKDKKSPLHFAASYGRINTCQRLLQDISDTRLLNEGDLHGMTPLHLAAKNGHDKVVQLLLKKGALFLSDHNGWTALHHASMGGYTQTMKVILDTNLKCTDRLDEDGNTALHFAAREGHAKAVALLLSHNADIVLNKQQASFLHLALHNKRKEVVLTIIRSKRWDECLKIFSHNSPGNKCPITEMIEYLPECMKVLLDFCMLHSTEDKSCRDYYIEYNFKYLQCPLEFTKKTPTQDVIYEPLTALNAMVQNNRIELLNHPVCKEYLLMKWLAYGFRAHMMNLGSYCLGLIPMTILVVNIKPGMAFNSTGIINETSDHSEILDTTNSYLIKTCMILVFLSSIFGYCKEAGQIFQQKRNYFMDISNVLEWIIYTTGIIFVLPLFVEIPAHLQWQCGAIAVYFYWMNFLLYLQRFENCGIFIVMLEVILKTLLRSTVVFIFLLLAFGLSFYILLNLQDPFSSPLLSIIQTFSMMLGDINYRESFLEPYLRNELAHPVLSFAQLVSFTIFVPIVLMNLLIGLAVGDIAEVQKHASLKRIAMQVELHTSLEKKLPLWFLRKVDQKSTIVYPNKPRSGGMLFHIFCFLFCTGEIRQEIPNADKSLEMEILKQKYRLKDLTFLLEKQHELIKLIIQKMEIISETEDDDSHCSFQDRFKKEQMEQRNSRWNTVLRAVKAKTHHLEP
row,Structure (SMILES),IC50
1,"O=C(Nc1ccc(Cl)cc1)OC(CN1CCCC(c2ccccc2)CC1)C(F)(F)F (centres unmarked) [Example 27, (4-Chlorophenyl)-carbamic acid 2,2,2-trifluoro-1-(4-phenyl-azepan-1-ylmethyl)-ethyl ester]",2260 nM
2,"Cc1noc(C2CCCN(C[C@H](OC(=O)Nc3ccc(Cl)cc3)C(F)(F)F)C2)n1 (mixture of isomers) [Example 28, (4-Chlorophenyl)-carbamic acid (S)-2,2,2-trifluoro-1-[3-(3-methyl-[1,2,4]oxadiazol-5-yl)-piperidin-1-ylmethyl]-ethyl ester hydrochloride]",1850 nM
3,"O=C(Nc1ccc(Cl)cc1)O[C@@H](CN1CCC[C@@H](c2ccccc2)C1)C(F)(F)F [Example 6, (4-Chlorophenyl)-carbamic acid (S)-2,2,2-trifluoro-1-((S)-3-phenylpiperidin-1-ylmethyl)-ethyl ester hydrochloride]",1500 nM
4,"O=C(Nc1ccc(Cl)cc1)O[C@@H](CN1CCC(Cc2ccccc2)C1)C(F)(F)F (stereo partly drawn) [Example 64, (4-Chlorophenyl)-carbamic acid (S)-1-(3-benzylpyrrolidin-1-ylmethyl)-2,2,2-trifluoro-ethyl ester]",4990 nM
5,"COC1CCCN(CC(OC(=O)Nc2ccc(Cl)cc2)C(F)(F)F)C1 (centres unmarked) [Example 16, (4-Chlorophenyl)-carbamic acid 2,2,2-trifluoro-1-(3-methoxypiperidin-1-ylmethyl)-ethyl ester]",4160 nM
6,"O=C(Nc1ccc(Cl)cc1)OC(CN1CCCC(C2CCCCC2)C1)C(F)(F)F (centres unmarked) [Example 18, (4-Chlorophenyl)-carbamic acid 1-(3-cyclohexylpiperidin-1-ylmethyl)-2,2,2-trifluoroethyl ester]",883 nM
7,"O=C(Nc1ccc(Cl)cc1)OC(CN1CCCC(Cc2ccccc2)C1)C(F)(F)F (centres unmarked) [Example 9, (4-Chlorophenyl)-carbamic acid 1-(3-benzylpiperidin-1-ylmethyl)-2,2,2-trifluoroethyl ester hydrochloride salt (1:1)]",339 nM
8,"O=C(Nc1ccc(Cl)cc1)OC(CN1CCCC(C(F)(F)F)C1)C(F)(F)F (centres unmarked) [Example 15, (4-chlorophenyl)-carbamic acid 2,2,2-trifluoro-1-(3-trifluoromethylpiperidin-1-ylmethyl)-ethyl ester]",563 nM
9,"O=C(Nc1ccc(Cl)cc1)O[C@H](CN1CCC[C@H](c2ccccc2)C1)C(F)(F)F [Example 7, (4-Chlorophenyl)-carbamic acid (R)-2,2,2-trifluoro-1-((R)-3-phenylpiperidin-1-ylmethyl)-ethyl ester hydrochloride]",6400 nM
10,"O=C(Nc1ccc(Cl)cc1)O[C@@H](CN1CCCC(OCc2cccnc2)C1)C(F)(F)F (stereo partly drawn) [Example 55, (4-Chlorophenyl)-carbamic acid (S)-2,2,2-trifluoro-1-[3-(pyridin-3-ylmethoxy)-piperidin-1-ylmethyl]-ethyl ester hydrochloride]",803 nM
11,"COc1ccccc1C1CCCN(CC(OC(=O)Nc2ccc(Cl)cc2)C(F)(F)F)C1 (centres unmarked) [Example 1, (4-Chlorophenyl)-carbamic acid 2,2,2-trifluoro-1-[3-(2-methoxyphenyl)-piperidin-1-ylmethyl]-ethyl ester]",4970 nM
12,"COCCOc1cc(C2CCCN(C[C@H](OC(=O)Nc3ccc(Cl)cc3)C(F)(F)F)C2)ccc1F (stereo partly drawn) [Example 34, (4-Chlorophenyl)-carbamic acid (S)-2,2,2-trifluoro-1-{3-[4-fluoro-3-(2-methoxyethoxy)-phenyl]-piperidin-1-ylmethyl}-ethyl ester]",339 nM
13,"COc1cccc(C2CCCN(CC(OC(=O)Nc3ccc(Cl)cc3)C(F)(F)F)C2)c1 (centres unmarked) [Example 2, (4-Chlorophenyl)-carbamic acid 2,2,2-trifluoro-1-[3-(3-methoxyphenyl)-piperidin-1-ylmethyl]-ethyl ester hydrochloride]",345 nM
14,"COc1ccc(C2CCCN(C[C@H](OC(=O)Nc3ccc(Cl)cc3)C(F)(F)F)C2)cc1 (stereo partly drawn) [Example 38, (4-Chlorophenyl)-carbamic acid (S)-2,2,2-trifluoro-1-[3-(4-methoxyphenyl)-piperidin-1-ylmethyl]-ethyl ester]",622 nM
15,"O=C(Nc1ccc(Cl)cc1)OC(CN1CCCC(c2ccc(Cl)cc2)C1)C(F)(F)F (centres unmarked) [Example 37, (4-Chlorophenyl)-carbamic acid 1-[3-(4-chlorophenyl)-piperidin-1-ylmethyl]-2,2,2-trifluoro ethyl ester]",522 nM
16,"O=C(C[C@@H](CN1CCC[C@@H](c2cccc(C(F)(F)F)c2)C1)C(F)(F)F)Nc1ccc(Cl)cc1 (racemic) [Example 26, Racemic (S)—N-(4-Chloro-phenyl)-4,4,4-trifluoro-3-[(S)-3-(3-trifluoromethyl-phenyl)-piperidin-1-ylmethyl]-butyramide]",1400 nM
17,"O=C(Nc1ccc(Cl)cc1)O[C@@H](CN1CCC[C@H](Oc2ccncc2)C1)C(F)(F)F (racemic) [Example 22a, (4-chloro-phenyl)-carbamic acid 2,2,2-trifluoro-1-[(R)-3-(pyridin-4-yloxy)-piperidin-1-ylmethyl]-ethyl ester]",4150 nM

# Now from value to molecule:
row,IC50,Structure (SMILES)
1,333 nM,"O=C(Nc1ccc(Cl)cc1)O[C@@H](CN1CCC[C@H](c2ccccc2)C1)C(F)(F)F [Example 5, (4-Chlorophenyl)-carbamic acid (S)-2,2,2-trifluoro-1-((R)-3-phenylpiperidin-1-ylmethyl)-ethyl ester hydrochloride]"
2,121 nM,"COc1cccc([C@H]2CCCN(C[C@H](OC(=O)Nc3ccc(Cl)cc3)C(F)(F)F)C2)c1 [Example 3, (4-Chlorophenyl)-carbamic acid (S)-2,2,2-trifluoro-1-[(R)-3-(3-methoxyphenyl)-piperidin-1-ylmethyl]-ethyl ester hydrochloride]"
3,113 nM,"COc1cc([C@H]2CCCN(C[C@H](OC(=O)Nc3ccc(Cl)cc3)C(F)(F)F)C2)ccc1F [Example 32, (4-Chloro-phenyl)-carbamic acid (S)-2,2,2-trifluoro-1-[(R)-3-(4-fluoro-3-methoxy-phenyl)-piperidin-1-ylmethyl]-ethyl ester hydrochloride]"
4,114 nM,"O=C(Nc1ccc(Cl)cc1)O[C@@H](CN1CCC[C@H](Oc2ccc(Cl)cc2)C1)C(F)(F)F [Example 52a, (4-Chlorophenyl)-carbamic acid (S)-1-[(S)-3-(4-chlorophenoxy)-piperidin-1-ylmethyl]-2,2,2-trifluoroethyl ester hydrochloride]"
5,200 nM,"O=C(Nc1ccc(Cl)c(Cl)c1)O[C@@H](CN1CCCC(c2cccc(C(F)(F)F)c2)C1)C(F)(F)F (stereo partly drawn) [Example 66, (3,4-Dichlorophenyl)-carbamic acid(S)-2,2,2-trifluoro-1-[3-(3-trifluoromethyl-phenyl)piperidin-1-ylmethyl]-ethyl ester]"
6,320 nM,"O=C(Nc1ccc(Cl)cc1)O[C@@H](CN1CCCC(c2cccc(F)c2)C1)C(F)(F)F (stereo partly drawn) [Example 41, (4-Chlorophenyl)-carbamic acid (S)-2,2,2-trifluoro-1-[3-(3-fluorophenyl)-piperidin-1-ylmethyl]-ethyl ester hydrochloride]"
7,177 nM,"O=C(Nc1ccc(F)c(F)c1)O[C@@H](CN1CCCC(c2cccc(C(F)(F)F)c2)C1)C(F)(F)F (stereo partly drawn) [Example 67, (3,4-Difluorophenyl)-carbamic acid (S)-2,2,2-trifluoro-1-[3-(3-trifluoromethylphenyl)piperidin-1-ylmethyl]-ethyl ester]"
8,147 nM,"O=C(Nc1ccc(Cl)cc1)O[C@@H](CN1CCCC(Oc2ccc(F)cc2)C1)C(F)(F)F (stereo partly drawn) [Example 48, (4-Chlorophenyl)-carbamic acid (S)-1-[3-(4-fluorophenoxy)-piperidin-1-ylmethyl]-2,2,2-trifluoroethyl ester hydrochloride]"
9,312 nM,"O=C(Nc1ccc(Cl)cc1)O[C@@H](CN1CCC[C@@H](c2cc(C(F)(F)F)cc(C(F)(F)F)c2)C1)C(F)(F)F (single isomer, unassigned) [Example 24]"
